The record followed here is US12351570B2 (MERCK PATENT GMBH, priority 2018, dated 2025).

Broadly, the IC50 is the midpoint of a concentration-inhibition curve. A higher IC50 goes with weaker potency in that assay.

For this test, the system named is MDA-MB-231 cells. As to the kind of experiment: Extracellular lactate production inhibition after 4 h, MDA-MB-231. The following applies: Homo sapiens, MDA-MB-231.
The compound `COc1ccc(S(=O)(=O)Nc2ccccc2C#Cc2ccc(C(=O)O)cc2)c2ccccc12` [Compound 8, 4-{2-[2-(4-methoxynaphthalene-1-sulfonamido)phenyl]ethynyl}benzoic acid] came in with an IC50 of 100 to 1000 nM. In the case of `COc1cc(C(=O)O)ncc1C#Cc1ccccc1NS(=O)(=O)c1c(C)ccc2cccnc12` [Compound 164, 4-methoxy-5-{2-[2-(7-methylquinoline-8-sulfonamido)phenyl]ethynyl}pyridine-2-carboxylic acid] it was 1 to 10 nM; in that of `O=C(O)c1ccc(C#Cc2ccccc2NS(=O)(=O)c2c(Cl)cc(Cl)c3cccnc23)cn1` [Compound 306, 5-{2-[2-(5,7-dichloroquinoline-8-sulfonamido)phenyl]ethynyl}pyridine-2-carboxylic acid], 10 to 100 nM; in that of `O=C(O)c1ccc(C#Cc2ccccc2NS(=O)(=O)c2cccc3c2OC(F)(F)O3)cc1` [Compound 251, 4-[2-(2,2-Difluoro-benzo[1,3]dioxole-4-sulfonylamino)-phenylethynyl]-benzoic acid], 1000 to 100000 nM. In the case of `O=CN(Cc1cccc2cccnc12)c1ccccc1C#Cc1ccc(C(=O)O)nc1` [Compound 178, 5-[2-(2-{N-[(quinolin-8-yl)methyl]formamido}phenyl)ethynyl] pyridine-2-carboxylic acid] it was 100 to 1000 nM; in that of `COc1ccc(S(=O)(=O)Nc2ccccc2C#Cc2cnc(C(=O)O)cc2Cl)c2ncccc12` [Compound 159, 4-chloro-5-{2-[2-(5-methoxyquinoline-8-sulfonamido)phenyl]ethynyl}pyridine-2-carboxylic acid], 10 to 100 nM. In the case of `CNc1cc(C#Cc2cc(Cl)ccc2NS(=O)(=O)c2ccc(OC)c3cccnc23)cnc1C(=O)O` [Compound 242, 5-{2-[5-chloro-2-(5-methoxyquinoline-8-sulfonamido)phenyl]ethynyl}-3-(methyl-amino)pyridine-2-carboxylic acid] it was 1 to 10 nM; in that of `COc1ccc(S(=O)(=O)Nc2ccc(F)cc2C#Cc2ccc(C(=O)O)nc2)c2ccccc12` [Compound 37, 5-{2-[5-fluoro-2-(4-methoxynaphthalene-1-sulfonamido)phenyl]ethynyl}pyridine-2-carboxylic acid], 100 to 1000 nM. Compound `O=C(O)c1ccc(C#Cc2ccccc2NS(=O)(=O)c2ccc(-c3ccccc3)cc2)cc1` [Compound 153, 4-[2-(2-{[1,1′-biphenyl]-4-sulfonamido}phenyl)ethynyl]benzoic acid] had an IC50 of 100 to 1000 nM. Under `Cc1ccccc1S(C)(=O)=Nc1ccccc1C#Cc1ccc(C(=O)O)nc1` (stereo not drawn) [Compound 438, 5-[2-(2-{[methyl(2-methylphenyl)oxo-λ6-sulfanylidene]amino}phenyl)ethynyl] pyridine-2-carboxylic acid] stands 1000 to 100000 nM; under `COC(=O)c1ncc(C#Cc2cc(F)ccc2NS(=O)(=O)c2ccc(OC)c3cccnc23)cc1C` [Compound 316, methyl 5-{2-[5-fluoro-2-(5-methoxyquinoline-8-sulfonamido)phenyl]ethynyl}-3-methylpyridine-2-carboxylate], 1000 to 100000 nM; under `O=C(O)c1ccc(C#Cc2ccccc2NS(=O)(=O)c2ccc(-n3cccn3)cc2)cn1` [Compound 142, 5-(2-{2-[4-(1H-pyrazol-1-yl)benzenesulfonamido]phenyl}-ethynyl)pyridine-2-carboxylic acid], 100 to 1000 nM. Under `Cc1cc(C#Cc2ccccc2NS(=O)(=O)c2ccc3c(c2)Cc2ccccc2-3)cnc1C(=O)O` [Compound 118, 5-{2-[2-(9H-fluorene-2-sulfonamido)phenyl]ethynyl}-3-methylpyridine-2-carboxylic acid] stands 100 to 1000 nM; under `NCCOCCOCCOCCOc1ccnc2c(S(=O)(=O)Nc3ccccc3C#Cc3cnc(C(=O)O)c4ccccc34)cccc12` [Compound 443, 4-(2-{2-[4-(2-{2-[2-(2-aminoethoxy)ethoxy]ethoxy}ethoxy)quinoline-8-sulfonamido]phenyl}-ethynyl)isoquinoline-1-carboxylic acid], 1000 to 100000 nM; under `COc1ccc(S(=O)(=O)Nc2ccccc2C#Cc2cnc(C(=O)O)cc2OC)cc1` [Compound 391, 4-Methoxy-5-[2-(4-methoxy-benzenesulfonylamino)-phenylethynyl]-pyridine-2-carboxylic acid], 100 to 1000 nM. In the case of `Cc1ccc2cccnc2c1S(=O)(=O)Nc1ccccc1C#Cc1ccc(C(=O)OCCOCCO)nc1` [Compound 409, 2-(2-hydroxyethoxy)ethyl 5-{2-[2-(7-methylquinoline-8-sulfonamido)phenyl]ethynyl}pyridine-2-carboxylate] it was 100 to 1000 nM. For the compound `O=C(O)c1ccc(C#Cc2ccccc2NS(=O)(=O)c2c(Br)ccc3ccc(Cl)nc23)cn1` [Compound 315, 5-{2-[2-(7-bromo-2-chloroquinoline-8-sulfonamido)phenyl]ethynyl}pyridine-2-carboxylic acid], the IC50 is 10 to 100 nM. Under `COc1cc(C#Cc2ccccc2NS(=O)(=O)c2ccc(OC)c3ccccc23)ccc1C(=O)O` [Compound 33, 2-methoxy-4-{2-[2-(4-methoxynaphthalene-1-sulfonamido)phenyl]ethynyl}benzoic acid] stands 100 to 1000 nM.

With `O=C(O)c1ccc(C#Cc2ccccc2NS(=O)(=O)c2cccc3c(Cl)ccnc23)cn1` [Compound 266, 5-[2-(4-Chloro-quinoline-8-sulfonylamino)-phenylethynyl]-pyridine-2-carboxylic acid], the IC50 fell in the range of 10 to 100 nM. Compound `O=C(O)c1ccc(C#Cc2ccccc2NS(=O)(=O)c2cccc3c(Cl)c(Cl)cnc23)cn1` [Compound 298, 5-{2-[2-(3,4-dichloroquinoline-8-sulfonamido)phenyl]ethynyl}pyridine-2-carboxylic acid] showed an IC50 of 10 to 100 nM. In the case of `CC(C)Oc1ccc(S(=O)(=O)Nc2ccccc2C#Cc2ccc(C(=O)O)nc2)c2ccccc12` [Compound 295, 5-(2-{2-[4-(propan-2-yloxy)naphthalene-1-sulfonamido]phenyl}ethynyl)pyridine-2-carboxylic acid] it was 10 to 100 nM; in that of `COc1cccc(S(=O)(=O)Nc2ccccc2C#Cc2ccc(C(=O)O)c(C)c2)c1` [Compound 9, 4-{2-[2-(3-methoxybenzenesulfonamido)phenyl]-ethynyl}-2-methylbenzoic acid], 1000 to 100000 nM. In the case of `COc1ccc(S(=O)(=O)Nc2ccccc2C#Cc2cnc3c(c2)CN(C)C3=O)c2ncccc12` [Compound 245, 5-methoxy-N-[2-(2-{6-methyl-7-oxo-5H,6H,7H-pyrrolo[3,4-b]pyridin-3-yl}ethynyl)phenyl]quinoline-8-sulfonamide] it was 1000 to 100000 nM; in that of `O=C(O)c1ccc(C#Cc2ccccc2NS(=O)(=O)c2cccc3c(Cl)cccc23)cn1` [Compound 289, 5-{2-[2-(5-chloronaphthalene-1-sulfonamido)phenyl]ethynyl}pyridine-2-carboxylic acid], 100 to 1000 nM.

Compound `CCN(c1ccccc1C#Cc1ccc(C(=O)O)cc1)S(=O)(=O)c1ccc2ccccc2c1` [Compound 36, 4-{2-[2-(N-ethylnaphthalene-2-sulfonamido)phenyl]ethynyl}benzoic acid] came in with an IC50 of 1000 to 100000 nM. Under `O=C(O)c1ccc(C#Cc2ccccc2NS(=O)(=O)c2cccc(N3CCOCC3)c2)cn1` [Compound 105, 5-(2-{2-[3-(morpholin-4-yl)benzenesulfonamido]phenyl}-ethynyl)pyridine-2-carboxylic acid] stands 1000 to 100000 nM; under `COc1cc(C(=O)O)ncc1C#Cc1ccccc1N(C=O)Cc1ccc(-c2ccccc2OC)cc1` [Compound 215, 4-methoxy-5-(2-{2-[N-({2′-methoxy-[1,1′-biphenyl]-4-yl}methyl)formamido]phenyl}-ethynyl)pyridine-2-carboxylic acid], 1 to 10 nM. The compound `COc1cc(C)c(S(=O)(=O)Nc2ccccc2C#Cc2ccc(C(=O)O)nc2)c(C)c1C` [Compound 277, 5-{2-[2-(4-methoxy-2,3,6-trimethyl-benzenesulfonamido)phenyl]ethynyl}-pyridine-2-carboxylic acid] returned an IC50 of 100 to 1000 nM. Under `CN(c1ccccc1C#Cc1ccc(C(=O)O)cc1)S(=O)(=O)c1ccc2ccccc2c1` [Compound 4, 4-{2-[2-(N-methylnaphthalene-2-sulfonamido)phenyl]ethynyl}benzoic acid] stands 100 to 1000 nM.

`COc1ccccc1-c1cccc(S(=O)(=O)Nc2ccccc2C#Cc2ccc(C(=O)O)nc2)c1` [Compound 114, 5-[2-(2-{2′-methoxy-[1,1′-biphenyl]-3-sulfonamido}phenyl)ethynyl]pyridine-2-carboxylic acid] returned an IC50 of 100 to 1000 nM. Under `Cc1ccc2cccnc2c1S(=O)(=O)Nc1ccccc1C#Cc1ccc(C(=O)O)nc1C` [Compound 100, 6-methyl-5-{2-[2-(7-methylquinoline-8-sulfonamido)phenyl]ethynyl}pyridine-2-carboxylic acid] stands 1000 to 100000 nM. The compound `COc1ccc(S(=O)(=O)Nc2ccccc2C#Cc2cnc(C(=O)O)c(C)c2)c2ccccc12` [Compound 63, 5-{2-[2-(4-methoxynaphthalene-1-sulfonamido)phenyl]ethynyl}-3-methylpyridine-2-carboxylic acid] gave an IC50 of 100 to 1000 nM.

Take `COc1cc(C(=O)O)ncc1C#Cc1ccccc1NS(=O)(=O)c1cccc2cccnc12` [Compound 366, 4-methoxy-5-{2-[2-(quinoline-8-sulfonamido)phenyl]ethynyl}pyridine-2-carboxylic acid]: the IC50 was in the range of 10 to 100 nM. In the case of `Cc1ccc(NS(=O)(=O)c2c(C)ccc3cccnc23)c(C#Cc2ccc(C(=O)O)nc2)c1` [Compound 393, 5-[5-Methyl-2-(7-methyl-quinoline-8-sulfonylamino)-phenylethynyl]-pyridine-2-carboxylic acid] it was 1 to 10 nM; in that of `COc1cc(C(=O)O)ncc1C#Cc1ccccc1NS(=O)(=O)N1CCC2CCCCC21` (stereo not drawn) [Compound 219, 4-methoxy-5-(2-{2-[(octahydro-1H-indole-1-sulfonyl)amino]phenyl}ethynyl)pyridine-2-carboxylic acid], 100 to 1000 nM; in that of `COc1ccc(S(=O)(=O)Nc2ccccc2C#Cc2ccc(C(=O)N3CCCC3)nc2)c2ncccc12` [Compound 386, 5-Methoxy-quinoline-8-sulfonic acid {2-[6-(pyrrolidine-1-carbonyl)-pyridin-3-ylethynyl]-phenyl}-amide], 1000 to 100000 nM.
